This note sets out measurements from patent publication US12486253B2, “Therapeutics for the degradation of mutant BRAF” (C4 THERAPEUTICS, INC., priority 2021, dated 2025).

In this experiment the target is BRAF V600E (Homo sapiens, UniProt P15056, V600E). Description: HiBiT cellular BRAF^V600E degradation assay. The format is cell-based. The following applies: for DC50: concentration at which 50% of total cellular BRAF^V600E is degraded; for Emax: read-out: HiBit 24 h Emax. Background: The HiBiT peptide binds its large partner to form an active luciferase.
Chain of BRAF V600E (P15056 whole entry V600E): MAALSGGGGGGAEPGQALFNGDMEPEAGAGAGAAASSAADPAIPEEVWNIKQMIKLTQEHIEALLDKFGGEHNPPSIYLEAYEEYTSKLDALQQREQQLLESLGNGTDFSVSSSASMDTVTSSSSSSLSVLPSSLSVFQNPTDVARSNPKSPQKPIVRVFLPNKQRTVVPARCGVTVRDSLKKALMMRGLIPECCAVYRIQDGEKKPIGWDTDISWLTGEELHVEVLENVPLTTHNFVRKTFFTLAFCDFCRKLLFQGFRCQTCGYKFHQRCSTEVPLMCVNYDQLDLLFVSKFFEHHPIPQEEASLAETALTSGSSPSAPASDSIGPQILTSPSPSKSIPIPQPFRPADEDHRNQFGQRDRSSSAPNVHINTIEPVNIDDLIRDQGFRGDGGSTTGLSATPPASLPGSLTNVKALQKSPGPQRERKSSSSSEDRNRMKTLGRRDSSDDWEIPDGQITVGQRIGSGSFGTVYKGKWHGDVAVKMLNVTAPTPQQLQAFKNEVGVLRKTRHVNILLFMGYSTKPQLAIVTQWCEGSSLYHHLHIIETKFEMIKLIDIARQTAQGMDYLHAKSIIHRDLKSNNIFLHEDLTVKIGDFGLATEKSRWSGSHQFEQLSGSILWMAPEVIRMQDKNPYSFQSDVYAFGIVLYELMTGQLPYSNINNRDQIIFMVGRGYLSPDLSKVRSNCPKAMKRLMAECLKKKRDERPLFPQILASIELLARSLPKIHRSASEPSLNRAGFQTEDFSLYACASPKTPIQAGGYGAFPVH
Setting [1] is: A375.10 cells, 24 h, residual protein remaining in the cell.

The structures appear in SMILES notation. Read-outs that look alike come from different tables or passages of the source.

One may read the DC50 as the concentration at which degradation of the target reaches its halfway point. In general, Emax refers to the maximal effect, on the per cent scale that the assay sets. Take `CCN(C)S(=O)(=O)Nc1ccc(F)c(Oc2ccc3ncn(-c4cnn(C5CCN(CC(=O)N6CCC(c7ccc(NC8CCC(=O)NC8=O)cc7)CC6)CC5)c4)c(=O)c3c2)c1C#N` (stereo not shown) [Example 21, 6-[2-cyano-3-[[ethyl(methyl)sulfamoyl]amino]-6-fluorophenoxy]-3-[1-[1-[2-[4-[4-[(2,6-dioxopiperidin-3-yl)amino]phenyl]piperidin-1-yl]-2-oxoethyl]piperidin-4-yl]pyrazol-4-yl]-4-oxoquinazoline]: half-maximal degradation (A375.10 cells, 24 h) (DC50) was put at 34.3 nM. The Emax under setting [1] came out at 19.6%.
In the case of `CCN(C)S(=O)(=O)Nc1ccc(F)c(Oc2ccc3ncn(C4CC5(CCN(C(=O)CN6CCC(c7ccc(NC8CCC(=O)NC8=O)cc7F)CC6)CC5)C4)c(=O)c3c2)c1C#N` (stereo not shown) [Example 22, 6-[2-cyano-3-[[ethyl(methyl)sulfamoyl]amino]-6-fluorophenoxy]-3-[7-[2-[4-[4-[(2,6-dioxopiperidin-3-yl)amino]-2-fluorophenyl]piperidin-1-yl]acetyl]-7-azaspiro[3.5]nonan-2-yl]-4-oxoquinazoline], the DC50 (A375.10 cells, 24 h) was 11.2 nM. Also, the maximum response (Emax) under setting [1] was found to be 11.5%.
Take `CCN(C)S(=O)(=O)Nc1ccc(F)c(Oc2ccc3ncn(C4CC5(CCN(C(=O)CC6(O)CCN(c7ccc(NC8CCC(=O)NC8=O)cc7F)CC6)CC5)C4)c(=O)c3c2)c1C#N` (stereo not shown) [Example 23, 6-[2-cyano-3-[[ethyl(methyl)sulfamoyl]amino]-6-fluorophenoxy]-3-[7-[2-[1-[4-[(2,6-dioxopiperidin-3-yl)amino]-2-fluorophenyl]-4-hydroxypiperidin-4-yl]acetyl]-7-azaspiro [3.5]nonan-2-yl]-4-oxoquinazoline]: the DC50 (A375.10 cells, 24 h) is 19.3 nM. For the same compound, the Emax under setting [1] turned out to be 21.7%.
The matching figures for `CCN(C)S(=O)(=O)Nc1ccc(F)c(Oc2ccc3ncn(C4COC5(CCN(C(=O)CN6CCC(c7ccc(NC8CCC(=O)NC8=O)cc7F)CC6)CC5)C4)c(=O)c3c2)c1C#N` (stereo not shown) [Example 24, 3-[6-[2-cyano-3-[[ethyl(methyl)sulfamoyl]amino]-6-fluorophenoxy]-4-oxoquinazolin-3-yl]-8-[2-[4-[4-[(2,6-dioxopiperidin-3-yl)amino]-2-fluorophenyl]piperidin-1-yl]acetyl]-1-oxa-8-azaspiro[4.5]decane]: 19.5 nM and 10.8%.
As to `CCN(C)S(=O)(=O)Nc1ccc(F)c(Oc2ccc3ncn(C4C5CN(C(=O)CN6CCC(c7ccc(NC8CCC(=O)NC8=O)cc7F)CC6)CC54)c(=O)c3c2)c1C#N` (stereo not shown) [Example 25, 6-[2-cyano-3-[[ethyl(methyl)sulfamoyl]amino]-6-fluorophenoxy]-3-[3-[2-[4-[4-[(2,6-dioxopiperidin-3-yl)amino]-2-fluorophenyl]piperidin-1-yl]acetyl]-3-azabicyclo[3.1.0]hexan-6-yl]-4-oxoquinazoline], it took 34.8 nM to reach half-maximal degradation (A375.10 cells, 24 h) (DC50). In addition, the Emax under setting [1] amounted to 11.9%.
Where the note is “A375.10 cells, 24 h”, `CCN(C)S(=O)(=O)Nc1cccc(Oc2ccc3ncn(C4CC5(CCN(C(=O)CN6CCC(c7ccc(NC8CCC(=O)NC8=O)cc7F)CC6)CC5)C4)c(=O)c3c2)c1C#N` (stereo not shown) [Example 26, 6-[2-cyano-3-[[ethyl(methyl)sulfamoyl]amino]phenoxy]-3-[7-[2-[4-[4-[(2,6-dioxopiperidin-3-yl)amino]-2-fluorophenyl]piperidin-1-yl]acetyl]-7-azaspiro[3.5]nonan-2-yl]-4-oxoquinazoline] registered a DC50 of 8.49 nM. Under setting [1], the Emax was determined as 10%.
Take `CCN(C)S(=O)(=O)Nc1ccc(F)c(Oc2ccc3ncn(C4COC5(CCN(C(=O)CC6(O)CCN(c7ccc(NC8CCC(=O)NC8=O)cc7F)CC6)CC5)C4)c(=O)c3c2)c1C#N` (stereo not shown) [Example 27, 3-[6-[2-cyano-3-[[ethyl(methyl)sulfamoyl]amino]-6-fluorophenoxy]-4-oxoquinazolin-3-yl]-8-[2-[1-[4-[(2,6-dioxopiperidin-3-yl)amino]-2-fluorophenyl]-4-hydroxypiperidin-4-yl]acetyl]-1-oxa-8-azaspiro[4.5]decane]: for the setting “A375.10 cells, 24 h”, the DC50 came out at 15 nM. In addition, the Emax under setting [1] came to 22.2%.
Regarding `CCN(C)S(=O)(=O)Nc1ccc(F)c(Oc2ccc3ncn(C4CCC5(CCN(C(=O)CN6CCC(c7ccc(NC8CCC(=O)NC8=O)cc7F)CC6)CC5)C4)c(=O)c3c2)c1C#N` (stereo not shown) [Example 28, 6-[2-cyano-3-[[ethyl(methyl)sulfamoyl]amino]-6-fluorophenoxy]-3-[8-[2-[4-[4-[(2,6-dioxopiperidin-3-yl)amino]-2-fluorophenyl]piperidin-1-yl]acetyl]-8-azaspiro[4.5]decan-3-yl]-4-oxoquinazoline], it took 22.9 nM to reach half-maximal degradation (A375.10 cells, 24 h) (DC50). Moreover, under setting [1], the Emax was 10.2%.
Regarding `CCN(C)S(=O)(=O)Nc1ccc(F)c(Oc2ccc3ncn(C4CCOC5(CCN(C(=O)CN6CCC(c7ccc(NC8CCC(=O)NC8=O)cc7F)CC6)CC5)C4)c(=O)c3c2)c1C#N` (stereo not shown) [Example 29, 4-[6-[2-cyano-3-[[ethyl(methyl)sulfamoyl]amino]-6-fluorophenoxy]-4-oxoquinazolin-3-yl]-9-[2-[4-[4-[(2,6-dioxopiperidin-3-yl)amino]-2-fluorophenyl]piperidin-1-yl]acetyl]-1-oxa-9-azaspiro[5.5]undecane], it took 33.7 nM to reach half-maximal degradation (A375.10 cells, 24 h) (DC50). Moreover, the Emax under setting [1] was 12.1%.
Where the note is “A375.10 cells, 24 h”, `CCN(C)S(=O)(=O)Nc1ccc(F)c(Oc2ccc3ncn(C4CCC5(CC4)CCN(C(=O)CN4CCC(c6ccc(NC7CCC(=O)NC7=O)cc6F)CC4)CC5)c(=O)c3c2)c1C#N` (stereo not shown) [Example 30, 9-[6-[2-cyano-3-[[ethyl(methyl)sulfamoyl]amino]-6-fluorophenoxy]-4-oxoquinazolin-3-yl]-3-[2-[4-[4-[(2,6-dioxopiperidin-3-yl)amino]-2-fluorophenyl]piperidin-1-yl]acetyl]-3-azaspiro[5.5]undecane] yielded a DC50 of 16.4 nM. Further, the Emax under setting [1] was found to be 12.1%.
Take `CCN(C)S(=O)(=O)Nc1ccc(F)c(Oc2ccc3ncn(CC4CC5(CCN(C(=O)CN6CCC(c7ccc(NC8CCC(=O)NC8=O)cc7F)CC6)CC5)C4)c(=O)c3c2)c1C#N` (stereo not shown) [Example 31, 6-[2-cyano-3-[[ethyl(methyl)sulfamoyl]amino]-6-fluorophenoxy]-3-[[7-[2-[4-[4-[(2,6-dioxopiperidin-3-yl)amino]-2-fluorophenyl]piperidin-1-yl]acetyl]-7-azaspiro[3.5]nonan-2-yl]methyl]-4-oxoquinazoline]: for the setting “A375.10 cells, 24 h”, the DC50 turned out to be 46.9 nM. Moreover, the Emax under setting [1] was 11.6%.
Turning to `CCN(C)S(=O)(=O)Nc1ccc(F)c(Oc2ccc3ncn(C4CCC5(CC4)CCN(C(=O)CN4CCC(c6ccc(NC7CCC(=O)NC7=O)cc6F)CC4)C5)c(=O)c3c2)c1C#N` (stereo not shown) [Example 32, 6-[2-cyano-3-[[ethyl(methyl)sulfamoyl]amino]-6-fluorophenoxy]-3-[2-[2-[4-[4-[(2,6-dioxopiperidin-3-yl)amino]-2-fluorophenyl]piperidin-1-yl]acetyl]-2-azaspiro[4.5]decan-8-yl]-4-oxoquinazoline], under “A375.10 cells, 24 h”, it took 40.3 nM to reach half-maximal degradation (DC50). Further, under setting [1], the Emax turned out to be 11.4%.
The compound `CCN(C)S(=O)(=O)Nc1ccc(F)c(Oc2ccc3ncn([C@H]4[C@@H]5CN(c6ccc(C(=O)NC7CCN(c8ccc(NC9CCC(=O)NC9=O)cc8F)CC7)cc6)C[C@@H]54)c(=O)c3c2)c1C#N` (stereo partly shown) [Example 35, 4-[6-[6-[2-cyano-3-[[ethyl(methyl)sulfamoyl]amino]-6-fluorophenoxy]-4-oxoquinazolin-3-yl]-3-azabicyclo[3.1.0]hexan-3-yl]-N-[1-[4-[(2,6-dioxopiperidin-3-yl)amino]-2-fluorophenyl]piperidin-4-yl]benzamide] yielded a DC50 (A375.10 cells, 24 h) of 6.82 nM. Further, the Emax under setting [1] turned out to be 13.6%.
In the case of `CCN(C)S(=O)(=O)Nc1ccc(F)c(Oc2ccc3ncn(CC4COC5(CCN(C(=O)CN6CCC(c7ccc(NC8CCC(=O)NC8=O)cc7F)CC6)CC5)C4)c(=O)c3c2)c1C#N` (stereo not shown) [Example 36, 3-[[6-[2-cyano-3-[[ethyl(methyl)sulfamoyl]amino]-6-fluorophenoxy]-4-oxoquinazolin-3-yl]methyl]-8-[2-[4-[4-[(2,6-dioxopiperidin-3-yl)amino]-2-fluorophenyl]piperidin-1-yl]acetyl]-1-oxa-8-azaspiro[4.5]decane], it took 51.3 nM to reach half-maximal degradation (A375.10 cells, 24 h) (DC50). The Emax under setting [1] came out at 10.3%.
In the case of `CCN(C)S(=O)(=O)Nc1ccc(F)c(Oc2ccc3ncn(C4CC5(CCN(C(=O)NC6CCN(c7ccc(NC8CCC(=O)NC8=O)cc7F)CC6)CC5)C4)c(=O)c3c2)c1C#N` (stereo not shown) [Example 37, 2-[6-[2-cyano-3-[[ethyl(methyl)sulfamoyl]amino]-6-fluorophenoxy]-4-oxoquinazolin-3-yl]-N-[1-[4-[(2,6-dioxopiperidin-3-yl)amino]-2-fluorophenyl]piperidin-4-yl]-7-azaspiro[3.5]nonane-7-carboxamide], the Emax came to 16.2%. The compound also yielded a DC50 (A375.10 cells, 24 h) of 48.4 nM.
The like results for `CCN(C)S(=O)(=O)Nc1ccc(F)c(Oc2ccc3ncn(C4COC5(CCN(C(=O)NC6CCN(c7ccc(NC8CCC(=O)NC8=O)cc7F)CC6)CC5)C4)c(=O)c3c2)c1C#N` (stereo not shown) [Example 38, 3-[6-[2-cyano-3-[[ethyl(methyl)sulfamoyl]amino]-6-fluorophenoxy]-4-oxoquinazolin-3-yl]-N-[1-[4-[(2,6-dioxopiperidin-3-yl)amino]-2-fluorophenyl]piperidin-4-yl]-1-oxa-8-azaspiro[4.5]decane-8-carboxamide] were, in that order, 11.4% and 36 nM.
For the compound `CCN(C)S(=O)(=O)Nc1ccc(F)c(Oc2ccc3ncn(C4CC5(CCN(C(=O)[C@H]6C[C@H](N7CC(c8ccc(NC9CCC(=O)NC9=O)cc8F)C7)C6)CC5)C4)c(=O)c3c2)c1C#N` (stereo partly shown) [Example 39, 6-[2-cyano-3-[[ethyl(methyl)sulfamoyl]amino]-6-fluorophenoxy]-3-[7-[3-[3-[4-[(2,6-dioxopiperidin-3-yl)amino]-2-fluorophenyl]azetidin-1-yl]cyclobutanecarbonyl]-7-azaspiro[3.5]nonan-2-yl]-4-oxoquinazoline], under “A375.10 cells, 24 h”, the DC50 was 27.5 nM. Besides, under setting [1], the Emax turned out to be 15.7%.
